Source: US20260374766A1, “METHODS FOR TREATING CANCER” (Antares Therapeutics, Inc., priority 2022, published 2026)

Experiments:
H1299 p53 Y220C = assay: Cell Proliferation Assay (CellTiter-Glo, CTG), H1299 p53 Y220C (NClH1299-inducible p53 Y220C); assay type: cell-based; details: Homo sapiens, NCI-H1299, 120 h, NClH1299-inducible p53 Y220C cells; 5 days
Summary of the method: (§1)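 Tet-One inducible p53 Y220C or R273H constructs were stably introduced into NCI-H1299 by lentiviral transduction; NUGC3 was used as is. Cells (250-500 per well) were exposed to compound for 5 days, then CellTiter-Glo was added for 10 min at room temperature and IC50 was calculated from luminescence.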

NUGC3 p53 Y220C = assay: Cell Proliferation Assay (CellTiter-Glo, CTG), NUGC3 p53 Y220C; assay type: cell-based; details: Homo sapiens, NUGC-3, 120 h, NUGC3 cells; 5 days
Summary of the method: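 NClH1299 lines stably transduced with Tet-inducible p53 Y220C or R273H, plus NUGC3, were treated with compound for 5 days at 250-500 cells/well. IC50 derived from CellTiter-Glo luminescent signal after 10 min room-temperature incubation.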

H1299 p53 R273H = assay: Cell Proliferation Assay (CellTiter-Glo, CTG), H1299 p53 R273H (NClH1299-inducible p53 R273H); assay type: cell-based; details: Homo sapiens, NCI-H1299, 120 h, NClH1299-inducible p53 R273H cells; 5 days
Summary of the method: as §1

[1] = target: T1, p53 Y220C mutant protein (amino acid residues 94-293) (Homo sapiens, UniProt P04637, Y220C); assay: Surface Plasmon Resonance (SPR) assay, Kd_kinetic; assay type: binding; details: SPR; p53 Y220C; read-out: SPR P53 Y220C KD kinetic
T1 construct: p53 Y220C mutant protein (amino acid residues 94-293)
T1 sequence (P04637 94-293, stated change not applied): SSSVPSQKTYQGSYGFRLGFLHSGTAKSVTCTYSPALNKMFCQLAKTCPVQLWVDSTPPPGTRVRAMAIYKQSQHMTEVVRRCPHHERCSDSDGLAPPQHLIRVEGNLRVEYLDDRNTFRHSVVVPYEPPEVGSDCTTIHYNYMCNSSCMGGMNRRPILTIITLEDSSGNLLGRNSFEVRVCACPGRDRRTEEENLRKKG
Summary of the method: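 Kd values come from fitting sensorgrams to a 1:1 binding model. Sensorgrams were recorded on a Biacore 8K at 16 or 20 °C in pH 7.5 Tris buffer with 100 mM NaCl, 1 mM DTT, detergents and 1% DMSO.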

p53 Y220C = p53 Y220C (Homo sapiens, UniProt P04637, Y220C); assay: Luciferase Reporter Assay (Luc), p53 response element, NClH1299 cells with inducible p53 Y220C; assay type: cell-based; details: NClH1299 cells with inducible p53 Y220C, 6 hour; for AC50: read-out: Luc P53 Y220C AC50; for Emax: 10 uM tool compound as positive control
Summary of the method: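 Luciferase activity is measured directly after One-Glo addition and a 5-minute room-temperature shake. Before that, cells plated at 5,000 per well receive doxycycline at 0.5 ug/mL for 24 hours, followed by compound for 6 hours.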

Compound | IC50 (H1299 p53 Y220C) [nM] | IC50 (NUGC3 p53 Y220C) [nM] | IC50 (H1299 p53 R273H) [nM] | Kd [1] [nM] | AC50 (p53 Y220C) [nM] | Emax (p53 Y220C) [%]
COc1cc(C(=O)NC[C@H](C)O)ccc1NCC#Cc1cc2c(N[C@@H]3CCN(C)C[C@@H]3F)cccn2c1SC(F)(F)F [Example 475, 4-{[3-(8-{[(3S,4R)-3-fluoro-1-methylpiperidin-4-yl]amino}-3-[(trifluoromethyl)sulfanyl]indolizin-2-yl)prop-2-yn-1-yl]amino}-N-[(2S)-2-hydroxypropyl]-3-methoxybenzamide] | < 750 | < 750 | 8000 to 10000 | < 10 | < 750 | > 90
CNC(=O)c1ccc(O)c(NCC#Cc2cc3c(N[C@@H]4CCNC[C@@H]4F)cccn3c2SC(F)(F)F)c1 [Example 477, 3-{[3-(8-{[(3S,4R)-3-fluoropiperidin-4-yl]amino}-3-[(trifluoromethyl)sulfanyl]indolizin-2-yl)prop-2-yn-1-yl]amino}-4-hydroxy-N-methylbenzamide] | < 750 | < 750 | ≥ 10000 | < 10 | < 750 | 80 to 90
CNC(=O)c1ccc(OC)c(NCC#Cc2cc3c(N[C@@H]4CNC[C@@H]4F)cccn3c2SC(F)(F)F)c1 [Example 478] | < 750 | < 750 | ≥ 10000 | < 10 | < 750 | > 90
CNC(=O)c1cc(NCC#Cc2cc3c(N[C@@H]4CCN(C)C[C@@H]4F)cccn3c2SC(F)(F)F)c2cncn2c1 [Example 479] | < 750 | < 750 | ≥ 10000 | < 10 | < 750 | > 90
CNC(=O)c1ccc(OC)c(NCC#Cc2cc3c(N[C@@H]4CCN(C5COC5)C[C@@H]4F)cccn3c2SC(F)(F)F)c1 [Example 481, 3-{[3-(8-{[(3S,4R)-3-fluoro-1-(oxetan-3-yl)piperidin-4-yl]amino}-3-[(trifluoromethyl)sulfanyl]indolizin-2-yl)prop-2-yn-1-yl]amino}-4-methoxy-N-methylbenzamide] | < 750 | < 750 | 5000 to 8000 | < 10 | < 750 | > 90
COc1ccc(C(=O)N[C@H]2C[C@H](O)C2)cc1NCC#Cc1cc2c(N[C@@H]3CCN(C)C[C@@H]3F)cccn2c1SC(F)(F)F [Example 482] | < 750 | < 750 | ≥ 10000 | < 10 | < 750 | > 90
CNC(=O)c1cc(NCC#Cc2cc3c(N[C@@H]4CCN(C)C[C@@H]4F)cccn3c2SC(F)(F)F)c2nncn2c1 [Example 483, 8-{[3-(8-{[(3S,4R)-3-fluoro-1-methylpiperidin-4-yl]amino}-3-[(trifluoromethyl)sulfanyl]indolizin-2-yl)prop-2-yn-1-yl]amino}-N-methyl-[1,2,4]triazolo[4,3-a]pyridine-6-carboxamide] | < 750 | < 750 | ≥ 10000 | < 10 | < 750 | > 90
O=C(NC[C@@H]1COCCO1)c1ccc(NCC#Cc2cc3c(N[C@@H]4CCNC[C@@H]4F)cccn3c2SC(F)(F)F)cc1 [Example 484] | < 750 | < 750 | 8000 to 10000 | < 10 | < 750 | > 90
C[C@@H](O)CNC(=O)c1ccc(OC2COC2)c(NCC#Cc2cc3c(N[C@@H]4CCN(C)C[C@@H]4F)cccn3c2SC(F)(F)F)c1 [Example 486] | < 750 | < 750 | ≥ 10000 | < 10 | < 750 | > 90
CNC(=O)c1ccc(NCC#Cc2cc3c(N[C@@H]4CCNC[C@@H]4F)cccn3c2SC(F)(F)F)c(OC)n1 [Example 488] | < 750 | < 750 | 5000 to 8000 | < 10 | < 750 | > 90
CNC(=O)c1ccc(NCC#Cc2cc3c(N[C@@H]4CCNC[C@@H]4F)cccn3c2SC(F)(F)F)cc1 [Example 492, 4-{[3-(8-{[(3S,4R)-3-fluoropiperidin-4-yl]amino}-3-[(trifluoromethyl)sulfanyl]indolizin-2-yl)prop-2-yn-1-yl]amino}-N-methylbenzamide] | < 750 | < 750 | 5000 to 8000 | < 10 | < 750 | > 90
CNC(=O)c1ccc(NCC#Cc2cc3c(N[C@@H]4CCN(C)C[C@@H]4F)cccn3c2SC(F)(F)F)c(C(=O)NC)c1 [Example 493, 4-{[3-(8-{[(3S,4R)-3-fluoro-1-methylpiperidin-4-yl]amino}-3-[(trifluoromethyl)sulfanyl]indolizin-2-yl)prop-2-yn-1-yl]amino}-N1,N3-dimethylbenzene-1,3-dicarboxamide] | < 750 | < 750 | ≥ 10000 | < 10 | < 750 | > 90
CNC(=O)c1ccc(NCC#Cc2cc3c(N[C@@H]4CCN(C)C[C@@H]4F)cccn3c2SC(F)(F)F)c(C(=O)NC)n1 [Example 495, 3-{[3-(8-{[(3S,4R)-3-fluoro-1-methylpiperidin-4-yl]amino}-3-[(trifluoromethyl)sulfanyl]indolizin-2-yl)prop-2-yn-1-yl]amino}-N2,N6-dimethylpyridine-2,6-dicarboxamide] | < 750 | < 750 | 5000 to 8000 | < 10 | < 750 | > 90
CNC(=O)c1cnc(C(=O)NC)c(NCC#Cc2cc3c(N[C@@H]4CCN(C)C[C@@H]4F)cccn3c2SC(F)(F)F)c1 [Example 496] | < 750 | < 750 | 5000 to 8000 | < 10 | < 750 | > 90
CNC(=O)c1ccc(O[C@H]2C[C@H](O)C2)c(NCC#Cc2cc3c(N[C@@H]4CCN(C)C[C@@H]4F)cccn3c2SC(F)(F)F)c1 [Example 497, 3-{[3-(8-{[(3S,4R)-3-fluoro-1-methylpiperidin-4-yl]amino}-3-[(trifluoromethyl)sulfanyl]indolizin-2-yl)prop-2-yn-1-yl]amino}-N-methyl-4-[(1r,3r)-3-hydroxycyclobutoxy]benzamide] | < 750 | < 750 | ≥ 10000 | < 10 | < 750 | > 90
CNC(=O)c1cnc(OC)c(NCC#Cc2cc3c(N[C@@H]4CCNC[C@@H]4F)cccn3c2SC(F)(F)F)c1 [Example 498] | < 750 | < 750 | ≥ 10000 | < 10 | < 750 | > 90
CNC(=O)c1ccc(OC2COC2)c(NCC#Cc2cc3c(N[C@@H]4CCN(C)C[C@@H]4F)cccn3c2SC(F)(F)F)c1 [Example 499] | < 750 | < 750 | 5000 to 8000 | < 10 | < 750 | > 90
CNC(=O)c1ccc(NCC#Cc2cc3c(N[C@@H]4CCN(C)C[C@@H]4F)cccn3c2SC(F)(F)F)c(F)c1 [Example 502, 3-fluoro-4-{[3-(8-{[(3S,4R)-3-fluoro-1-methylpiperidin-4-yl]amino}-3-[(trifluoromethyl)sulfanyl]indolizin-2-yl)prop-2-yn-1-yl]amino}-N-methylbenzamide] | < 750 | < 750 | ≥ 10000 | < 10 | < 750 | > 90
CNC(=O)c1ccc(NCC#Cc2cc3c(N[C@@H]4CCN(C5COC5)C[C@@H]4F)cccn3c2SC(F)(F)F)c(OC)c1 [Example 504, 4-{[3-(8-{[(3S,4R)-3-fluoro-1-(oxetan-3-yl)piperidin-4-yl]amino}-3-[(trifluoromethyl)sulfanyl]indolizin-2-yl)prop-2-yn-1-yl]amino}-3-methoxy-N-methylbenzamide] | < 750 | < 750 | < 5000 | < 10 | < 750 | > 90
CNC(=O)c1ccc(C(=O)NC)c(NCC#Cc2cc3c(N[C@@H]4CCN(C)C[C@@H]4F)cccn3c2SC(F)(F)F)c1 [Example 508] | < 750 | < 750 | 8000 to 10000 | < 10 | < 750 | > 90
